The text below walks through data of patent publication US5036059A, “1,4-Dihydropyridine-3-carboxylate derivatives” (Nippon Shinyaku Company, Limited, priority 1984, dated 1991).

The subject of assay [1] is rats (with normal blood pressure). In words: Hypotensive action, mean blood pressure of femoral artery in unanesthetized normotensive rats, oral. The class given is in vivo. The conditions noted are these: Rattus norvegicus, read-out: % Decreases in Mean Blood Pressure [at peak effect]; for inhibition in vivo at 1 mg/kg: 1 mg/kg oral; for inhibition in vivo at 3 mg/kg: 3 mg/kg oral; for inhibition in vivo at 10 mg/kg: 10 mg/kg oral. The method, then: Blood pressure of femoral artery of rats (with normal blood pressure) under unanesthetized condition was measured directly using a pressure tranducer.
The present invention compounds were given orally at doses of 1, 3 and 10 mg/kg, and changes in blood pressure were continuously recorded. Percent decreases of mean blood pressure at the peak effect were calculated. The maximum changes in mean blood pressure (%) were shown as "hypotensive action" (Table 2).
Hypotensive action of diltiazem (which is a known hypotensive drug) measured by the same method at the doses of 3, 10 and 30 mg/kg were 0, 11.2 and 33.0%, respectively. Hypotensive action of the compound of Example 4 which is one of the most representative compounds of this invention was tested using spontaneously hypertensive rats and was compared with those of Nifedipine and Diltiazem hydrochloride. The method applied was that the drugs were orally given to the rats of which systolic arterial blood pressure were higher than 180 mmHg when it was measured plethysmographically using tail arteries. (Table 3)

The subject of the next assay is guinea pig heart. In words: Coronary vasodilating action, constant pressure perfusion of isolated guinea pig heart (Langendorff). The conditions noted are these: Cavia porcellus, via coronary artery, read-out: Perfusion Increasing Rate; for activation at 0.001 mg: 10^-6 gram/heart; for activation at 0.0001 mg: 10^-7 gram/heart. As for the experimental part: Constant pressure perfusion samples of guinea pig heart isolated by a method according to Langendorff were treated with the present invention compounds by administration via coronary artery and the effect was examined (Table 1).
With reference to coronary vasodilating action of diltiazem measured by the same method, the increasing rates in perfusion by administration of 10^-7, 10^-6 and 10^-5 gram/heart were 4, 16 and 55%, respectively.

For the molecule `CC1=C(C(=O)OCCN(C)Cc2ccccc2)C(c2cccc([N+](=O)[O-])c2)C(P2(=O)OCCCO2)=C(C)N1` (stereo not drawn) [Example 2, 2-(N-benzyl-N-methylamino)ethyl 2,6-dimethyl-4-(3-nitrophenyl)-5-(2-oxo-1,3,2-dioxaphosphorinan-2-yl)-1,4-dihydropyridine-3-carboxylate], in assay [1], the inhibition in vivo at 1 mg/kg stood at 18.4%, the inhibition in vivo at 3 mg/kg was determined as 39.2% and the inhibition in vivo at 10 mg/kg worked out at 50.1%.
As for `CCOC(=O)C1=C(C)NC(C)=C(P2(=O)OCCCO2)C1c1ccccc1[N+](=O)[O-]` (stereo not drawn) [Example 5, Ethyl 2,6-dimethyl-4-(2-nitrophenyl)-5-(2-oxo-1,3,2-dioxaphosphorinan-2-yl)-1,4-dihydropyridine-3-carboxylate], in assay [1], the inhibition in vivo at 1 mg/kg was 39.7%, the inhibition in vivo at 3 mg/kg is 43.3% and the inhibition in vivo at 10 mg/kg came to 46.2%.
Regarding `CC1=C(C(=O)OC(C)C)C(c2ccccc2[N+](=O)[O-])C(P2(=O)OCCCO2)=C(C)N1` (stereo not drawn) [Example 6, Isopropyl 2,6-dimethyl-4-(2-nitrophenyl)-5-(2-oxo-1,3,2-dioxaphosphorinan-2-yl)-1,4-dihydropyridine-3-carboxylate], in the assay on guinea pig heart, the activation at 0.001 mg came to 52% and the activation at 0.0001 mg was 10%.
In the case of `COC(=O)C1=C(C)NC(C)=C(P2(=O)OCC(C)(C)CO2)C1c1cccc([N+](=O)[O-])c1` (stereo not drawn) [Example 7, Methyl 2,6-dimethyl-5-(5,5-dimethyl-2-oxo-1,3,2-dioxaphosphorinan-2-yl)-4-(3-nitrophenyl)-1,4-dihydropyridine-3-carboxylate], in assay [1], the inhibition in vivo at 1 mg/kg was determined as 12.7%, the inhibition in vivo at 3 mg/kg is 18.4% and the inhibition in vivo at 10 mg/kg was 31.4%.
Regarding `CC1=C(C(=O)OCCN(C)Cc2ccccc2)C(c2cccc([N+](=O)[O-])c2)C(P2(=O)OCC(C)(C)CO2)=C(C)N1` (stereo not drawn) [Example 9, 2-(N-Benzyl-N-methylamino)-ethyl 2,6-dimethyl-5-(5,5-dimethyl-2-oxo-1,3,2-dioxaphosphorinan-2-yl)-4-(3-nitrophenyl)-1,4-dihydropyridine-3-carboxylate], in assay [1], the inhibition in vivo at 1 mg/kg came out at 12.7%, the inhibition in vivo at 3 mg/kg was 12.9% and the inhibition in vivo at 10 mg/kg stood at 40.4%.
For `CC1=C(C(=O)OCCN(C)C)C(c2cccc([N+](=O)[O-])c2)C(P2(=O)OCC(C)(C)CO2)=C(C)N1` (stereo not drawn) [Example 10, 2-(N,N-Dimethylamino)ethyl 2,6-dimethyl-5-(5,5-dimethyl-2-oxo-1,3,2-dioxaphosphorinan-2-yl)-4-(3-nitrophenyl)-1,4-dihydropyridine-3-carboxylate], in the assay with guinea pig heart, the activation at 0.001 mg was found to be 22% and the activation at 0.0001 mg is 12%.
In the same order, the values of `CCCOCCOC(=O)C1=C(C)NC(C)=C(P2(=O)OCC(C)(C)CO2)C1c1cccc([N+](=O)[O-])c1` (stereo not drawn) [Example 11, 2-n-Propoxyethyl 2,6-dimethyl-5-(5,5-dimethyl-2-oxo-1,3,2-dioxaphosphorinan-2-yl)-4-(3-nitrophenyl)-1,4-dihydropyridine-3-carboxylate] are 53% and 11%.
In the same order, the values of `CC1=C(C(=O)OCCOCc2ccccc2)C(c2cccc([N+](=O)[O-])c2)C(P2(=O)OCC(C)(C)CO2)=C(C)N1` (stereo not drawn) [Example 12, 2-Benzyloxyethyl 2,6-dimethyl-5-(5,5-dimethyl-2-oxo-1,3,2-dioxaphosphorinan-2-yl)-4-(3-nitrophenyl)-1,4-dihydropyridine-3-carboxylate] are 67% and 14%.
On to `COC(=O)C1=C(C)NC(C)=C(P2(=O)OC(C)CC(C)O2)C1c1ccccc1[N+](=O)[O-]` (stereo not drawn) [Example 18, Methyl 2,6-dimethyl-5-(4,6-dimethyl-2-oxo-1,3,2-dioxaphosphorinan-2-yl)-4-(2-nitrophenyl)-1,4-dihydropyridine-3-carboxylate], for which, in assay [1], the inhibition in vivo at 1 mg/kg amounted to 15.7%, the inhibition in vivo at 3 mg/kg amounted to 42.7% and the inhibition in vivo at 10 mg/kg was 45.5%.
`CC1=C(C(=O)OCCN(C)Cc2ccccc2)C(c2cccc([N+](=O)[O-])c2)C(P2(=O)O[C@H](C)C[C@@H](C)O2)=C(C)N1` (stereo partly drawn) [Example 20, 2-(N-Benzyl-N-methylamino)-ethyl 2,6-dimethyl-5-[4(R),6(R)-dimethyl-2-oxo-1,3,2-dioxaphosphorinan-2-yl]-4-(3-nitrophenyl)-1,4-dihydropyridine-3-carboxylate]: in the assay with guinea pig heart, the activation at 0.001 mg amounted to 32% and the activation at 0.0001 mg came out at 10%.
Take `CCC1(CC)COP(=O)(C2=C(C)NC(C)=C(C(=O)OC)C2c2ccccc2[N+](=O)[O-])OC1` (stereo not drawn) [Example 24, Methyl 5-(5,5-diethyl-2-oxo-1,3,2-dioxaphosphorinan-2-yl)-2,6-dimethyl-4-(2-nitrophenyl)-1,4-dihydropyridine-3-carboxylate]: in the assay with guinea pig heart, the activation at 0.001 mg stood at 41% and the activation at 0.0001 mg amounted to 12%.
For the molecule `COC(=O)C1=C(C)NC(C)=C(P2(=O)OCC(C)CO2)C1c1cccc([N+](=O)[O-])c1` (stereo not drawn) [Example 26], in assay [1], the inhibition in vivo at 1 mg/kg stood at 28.7%, the inhibition in vivo at 3 mg/kg is 37.1% and the inhibition in vivo at 10 mg/kg was 43.8%.
On the same counts, the results for `CCC1COP(=O)(C2=C(C)NC(C)=C(C(=O)OC)C2c2cccc([N+](=O)[O-])c2)OC1` (stereo not drawn) [Example 28, Methyl 5-(5-ethyl-Z-oxo-1,3,2-dioxaphosphorinan-2-yl)-2,6-dimethyl-4-(3-nitrophenyl)-1,4-dihydropyridine-3-carboxylate] are 16.5%, 26.6% and 33.9%.
As for `CCOC(=O)C1=C(C)NC(C)=C(P2(=O)OCCCO2)C1c1ccccc1C(F)(F)F` (stereo not drawn) [Example 51, Ethyl 2,6-dimethyl-5-(2-oxo-1,3,2-dioxaphosphorinan-2-yl)-4-(2-trifluoromethylphenyl)-1,4-dihydropyridine-3-carboxylate], in assay [1], the inhibition in vivo at 1 mg/kg was 21.1%, the inhibition in vivo at 3 mg/kg stood at 43% and the inhibition in vivo at 10 mg/kg was determined as 45.4%.
Turning to `CC1=C(C(=O)OCCN(C)Cc2ccccc2)C(c2ccccc2OC(F)F)C(P2(=O)OCC(C)(C)CO2)=C(C)N1` (stereo not drawn) [Example 64, 2-(N-Benzyl-N-methylamino)-ethyl 4-(2-difluoromethoxyphenyl)-2,6-dimethyl-5-(5,5-dimethyl-2-oxo-1,3,2-dioxaphosphorinan-2-yl)-1,4-dihydropyridine-3-carboxylate], in assay [1], the inhibition in vivo at 1 mg/kg was found to be 6.9%, the inhibition in vivo at 3 mg/kg turned out to be 16.5% and the inhibition in vivo at 10 mg/kg came to 41.5%.
In the same order, the values of `CC1=C(C(=O)OCC2CC2)C(c2ccccc2[N+](=O)[O-])C(P2(=O)OCCCO2)=C(C)N1` (stereo not drawn) [Example 68, Cyclopropylmethyl 2,6-dimethyl-4-(2-nitrophenyl)-5-(2-oxo-1,3,2-dioxaphosphorinan-2-yl)-1,4-dihydropyridine-3-carboxylate] are 13%, 41.7% and 45.8%.
On the same counts, the results for `CC(=O)COC(=O)C1=C(C)NC(C)=C(P2(=O)OCCCO2)C1c1ccccc1C(F)(F)F` (stereo not drawn) [Example 76, 2-Oxopropyl 2,6-dimethyl-5-(2-oxo-1,3,2-dioxaphosphorinan-2-yl)-4-(2-trifluoromethylphenyl)-1,4-dihydropyridine-3-carboxylate] are 10.5%, 35% and 40.2%.
